From US20160193216A1 (Nimbus Iris, Inc., priority 2012, published 2016)
Read-outs that look alike come from different tables or passages of the source.

Columns and labels:
hPBMC = assay: In vitro LPS/R848/CpG/IL-1β-induced cytokine production assay in hPBMC; format: cell-based; conditions: Homo sapiens
Protocol: (§1) In Vitro LPS/R848/CpG-Induced Cytokine Production Assays in hPBMC or Whole Blood
(§2) Compounds of the present invention were also studied in in vitro LPS/R848/CpG-induced cytokine production assays. Exemplary protocols follow.
(§3) […] Cells were seeded in a 96-well plate with 130 ul/well of the cell suspension according to the plate map. 9 ul of 30 mM compound solution was added into the wells in the assigned rows, then serial solutions with 4× dilutions were made. That is, add 9 uL of 100% DMSO into each of the rest wells and take 3 uL of compound solution from the one-step higher concentration solution and mix well with the DMSO. For the second compound master plate, 196 uL of the growth medium (no serum media) were added into each of the wells and 4 uL of the compound solution from the first compound master plate was added and mixed with the media. Cells were treated for 0.5 h by adding 20 uL of the compound and the control solutions prepared in the second master plate to each well according to the plate map. […] Plates were sealed with sealing films and the plates were centrifuged at 3000 rpm at 4 degrees C. for 5 min. The supernatants were transferred, and 100 ul of working Capture antibody solution was added to each well. The plates were sealed and incubated overnight at RT. IL-6, IFN-α or TNF-α detection antibody labeled with biotin: Added 100 uL of the Detection Antibody solution to each well. Covered the plate and incubated for 2 h at RT. Added 100 uL of Streptavidin-HRP solution to each well. Covered the plate and incubate for 20 min at RT in dark. Added 100 uL of Substrate Solution to each well. Incubated for 20 min at RT in dark. Added 50 uL of Stop Solution to each well. Gently tapped the plate to ensure thorough mixing. Determined the optical density of each well immediately, using a microplate reader set to 450 nm and also read at 540 nm or 570 nm for correction if wavelength correction is not available.

GCB DLBCL Cells = assay: sensitization of GCB DLBCL cells by BTK knockdown; format: cell-based; conditions: BTK knockdown (FIG. 10)
ABC DLBCL Cells = assay: sensitization of ABC DLBCL cells to IRAK inhibitors by BTK knockdown; format: cell-based; conditions: BTK knockdown (FIG. 9)
Excerpt: FIG. 8 depicts the sensitization of ABC DLBCL Cells to IRAK Inhibitors by BTK knockdown.

Whole Blood = assay: In vitro LPS/R848-induced cytokine production assay in whole blood; format: cell-based, human; conditions: Homo sapiens
Protocol: as §1, §2, §3

[1] = R848 1 uM, read-out: TNF-α production IC50

IC50 (hPBMC; CpG 0.1 uM, read-out: IFN-α production IC50): 0.5 to 1 µM | IC50 (hPBMC; CpG 0.5 uM, read-out: TNF-α production IC50): 0.25 to 0.5 µM | IC50 (hPBMC; IL-1β 1 ng/mL, read-out: IL-6 production IC50): 0.25 to 0.5 µM | IC50 (hPBMC; LPS 0.01 ug/mL, read-out: IL-6 production IC50): ≤ 0.25 µM | IC50 (hPBMC; LPS 0.01 ug/mL, read-out: TNF-α production IC50): 0.25 to 0.5 µM | IC50 (hPBMC; [1]): 0.5 to 1 µM | IC50 (Whole Blood; LPS 0.1 ug/mL, read-out: IL-6 production IC50): ≤ 0.25 µM | IC50 (Whole Blood; R848 1 uM, read-out: IFN-α production IC50): ≥ 1 µM | IC50 (Whole Blood; [1]): 0.5 to 1 µM
Structure (SMILES): NC(=O)C[C@H]1CCc2sc3ncnc(O[C@H]4CC[C@H](N5CCOCC5)CC4)c3c21 [Compound I-67, 2-((R)-4-(((1r,4R)-4-morpholinocyclohexyl)oxy)-6,7-dihydro-5H-cyclopenta[4,5]thieno[2,3-d]pyrimidin-5-yl)acetamide]
sensitization of GCB DLBCL Cells to compound by BTK Knockdown (GCB DLBCL Cells): lack of sensitization | sensitization of ABC DLBCL Cells to compound by BTK knockdown (ABC DLBCL Cells): sensitization
